pIC50: −log10 of the molar value. Values joined by “and” are separate entries in the source; they are usually repeats but may differ in a detail not shown here. Equal values may be shown once.
Tested on: 922993-354-T-J3-PDC complex spheroids, viability, % test/control
Assay: Anticancer human tumor 922993-354-T-J3-PDC patient-derived endometrial carcinoma cell line growth inhibition [CLK]
Conditions: for viability, T/C: stronger effect = lower value; for pIC50: curve of compound
Source text: A high-throughput screen of multi-cell type tumor spheroids was designed to identify active combinations of […] and targeted small molecules. Complex spheroids include a stromal component modeled by human endothelial cells (HUVEC) and fibroblasts modeled by human mesenchymal stem cells (MSCs). The concentration ranges selected for each drug and investigational agent were based upon clinically achievable concentrations if the clinical Cmax of the agent was known.
Compounds. The drugs and investigational agents: cirtuvivint (SM08502; NSC835563), CC-671 (NSC850746), vemurafenib (NSC761431), tapotoclax (NSC804041), sotorasib (NSC818433), adagrasib (NSC831453), MRTX-1133 (NSC836407), BAY2416964 (NSC825713), copanlisib (NSC816437), inavolisib (NSC800729), abemaciclib (NSC768073), osimertinib (NSC779217), entinostat (NSC756642), eltanexor (KPT-8602, NSC794443), venetoclax (NSC766270), ceralasertib (NSC777638), bortezomib (NSC756655), olaparib (NSC753686), talazoparib (NSC767125), alisertib (NSC759677), peposertib (NSC802822), gemcitabine (NSC613327), 5-fluorouracil (NSC19893), SN-38 (NSC673596), oxaliplatin (NSC266046), paclitaxel (NSC125973), and doxorubicin (NSC123127), were obtained from the National Cancer Institute (NCI) Developmental Therapeutics Program Chemical Repository. The FDA-approved anticancer drug set is available from the Developmental Therapeutics Program at https://dtp.cancer.gov/organization/dscb/obtaining/available plates.htm. […] The stock solutions were prepared in dimethyl sulfoxide (DMSO, Sigma-Aldrich, St. Louis, MO, cat. D2650), except for the platinum complexes which were prepared in saline (Quality Biological, Gaithersburg, MD, cat. 114-055-101), at 800-fold the tested concentration and stored at -70 degrees C prior to their use. All drugs and investigational agents were tested over a range starting from a high concentration at or near the clinical Cmax and decreasing in half-log increments. If the clinical Cmax for an agent had not been determined, the highest concentration tested was 10 microM.
Cell Culture. All cells were maintained in an incubator at 37 degrees C and 5% CO2 with 95% humidity. The PDC lines were cultured according to standard operating procedures established by the NCI PDMR. Briefly, all PDCs were thawed and cultured in Matrigel-coated flasks prepared with a working solution of 1X Ham's F-12 nutrient mix, without supplementation (Invitrogen, Waltham, MA, cat. 11765054), 100 U/mL penicillin-streptomycin (Invitrogen, cat. 15140122), and 2.5% Matrigel (Corning Inc., Corning, NY, cat. 354248) for the first three passages. The 947758-054-R-J2-PDC line was cultured in 6B/Colon 1A media, which includes advanced DMEM/F-12 (Thermo Fisher Scientific, cat. 12634028), 10 mM HEPES (Thermo Fisher Scientific, cat. 15630080), 1X GlutaMAX supplement (Thermo Fisher Scientific, cat. 35050061), 0.1 mg/mL primocin (InvivoGen, cat. ant-pm-2), 10% defined fetal bovine serum, heat inactivated (HyClone Laboratories Inc., cat. SH30070.03HI), 1.25 mM N-Acetyl-L-cysteine (Sigma-Aldrich, cat. A9165), 10 mM nicotinamide (Sigma-Aldrich, cat. N0636), 1X B-27 supplement (Thermo Fisher Scientific, cat. 17504044), 1X N-2 supplement (Thermo Fisher Scientific, cat. 17502048), and 10 microM Y-27632 dihydrochloride (Tocris Bioscience, cat. 1254). The 876862-298-R-J1-PDC was cultured in 6E media, which includes all 6B/Colon 1A media components plus 50% L-WRN conditioned media (ATCC, cat. CRL-3276), 50 ng/mL recombinant human EGF recombinant protein (hEGF; Thermo Fisher Scientific, cat. PHG0311), 10 ng/mL recombinant human fibroblast growth factor 10 (hGFG-10; PeproTech, cat. 100-26), 1 ng/mL recombinant human fibroblast growth factor 2 (hFGF-2; PeproTech, cat. 100-18B), and 1 µM prostaglandin E2 (PGE2; Tocris, cat. 2296). The 227483-062-R1-J1-PDC line was cultured in Panc media, containing all 6E components except hFGF-2, with the addition of 500 nM SB-431542 (Selleckchem, cat. S1067) and 10 nM gastrin (Tocris, cat. 3006). […]
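Also: spheroids exposed to the agents for 7 days before readout.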

SMILES	pIC50	IC50 (compound alone, run of 09/19/2023)	viability, T/C (compound 0.00316 µM)	viability, T/C (compound 0.01 µM)	viability, T/C (compound 0.0316 µM)	viability, T/C (compound 0.1 µM)	viability, T/C (compound 0.316 µM)	viability, T/C (compound 1 µM)	viability, T/C (compound 3.16 µM)	viability, T/C (compound 10 µM)	viability, T/C (compound 0.000316 µM)	viability, T/C (compound 0.001 µM)	viability, T/C (compound 0.00949 µM)	viability, T/C (compound 0.03 µM)	viability, T/C (compound 0.0949 µM)	viability, T/C (compound 0.3 µM)	viability, T/C (compound 0.949 µM)	viability, T/C (compound 3 µM)
CCc1c2c(nc3ccc(O)cc13)-c1cc3c(c(=O)n1C2)COC(=O)[C@]3(O)CC	8.13 and 7.79		84.6% and 97.6%	38% and 69.2%	12.8% and 21.2%	13.1% and 16%	17% and 25.4%	22% and 27.1%										
COC1C=CCC(C)C(C)S(=O)(=O)NC(=O)c2ccc3c(c2)N(CC2CCC21)CC1(CCCc2cc(Cl)ccc21)CO3 (stereo unspecified)	5.34 and 5.24				99.2% and 106%	99.9% and 97.5%	103% and 106%	84.5% and 89.9%	68.4% and 84%	13.7% and 21.5%								
COc1c(OCCCN2CCOCC2)ccc2c3n(c(=NC(=O)c4cnc(N)nc4)nc12)CCN3	6.93 and 6.65		109% and 111%	89.1% and 90.3%	75.1% and 91.2%	54.6% and 68.8%	30.3% and 40.4%	9.62% and 15.9%										
NC(=O)C(=Cn1cnc(-c2cc(C(F)(F)F)cc(C(F)(F)F)c2)n1)c1cncnc1	6.73 and 5.93												99% and 121%	107% and 106%	64.8% and 96.1%	47.6% and 68.7%	46.4% and 56.8%	24.8% and 32.5%
Nc1ccccc1NC(=O)c1ccc(CNC(=O)OCc2cccnc2)cc1	< 5.00				105% and 111%	71.8% and 85.9%	95.8% and 95.2%	71.8% and 81.7%	64.9% and 70.1%	53.4% and 55.2%								
Nc1ccn(C2OC(CO)C(O)C2(F)F)c(=O)n1 (stereo unspecified)	> 7.50				15.9% and 15.4%	17.1% and 18.3%	15.5% and 15.6%	15.6% and 16.5%	15.1% and 13.7%	13.5% and 14.2%								
O=c1[nH]cc(F)c(=O)[nH]1	5.60 and 5.29				102% and 101%	95.8% and 97.9%	86.8% and 93.4%	104% and 115%	38% and 60.7%	26.7% and 35.1%								

More lines, main results first:

pIC50	IC50 (compound alone, run of 09/19/2023)	SMILES	viability, T/C (compound 0.00316 µM)	viability, T/C (compound 0.01 µM)	viability, T/C (compound 0.0316 µM)	viability, T/C (compound 0.1 µM)	viability, T/C (compound 0.316 µM)	viability, T/C (compound 1 µM)	viability, T/C (compound 3.16 µM)	viability, T/C (compound 10 µM)	viability, T/C (compound 0.000316 µM)	viability, T/C (compound 0.001 µM)	viability, T/C (compound 0.00949 µM)	viability, T/C (compound 0.03 µM)	viability, T/C (compound 0.0949 µM)	viability, T/C (compound 0.3 µM)	viability, T/C (compound 0.949 µM)	viability, T/C (compound 3 µM)
< 6.00		CCN1CCN(Cc2ccc(Nc3ncc(F)c(-c4cc(F)c5nc(C)n(C(C)C)c5c4)n3)nc2)CC1	94.4% and 96.9%	91.2% and 85.8%	94.2% and 84.1%	99.8% and 93.6%	72% and 73.3%	59.6% and 50.1%										
	557 nM [middle of 12 runs]	CNC(=O)c1ccc(Nc2nc(OC3CCCC3)c3c(-c4ccc5nc(C)oc5c4)c[nH]c3n2)c(OC)c1			106% [middle of 12 runs]	107% [middle of 12 runs]		39.3% [middle of 12 runs]	34.4% [middle of 12 runs]	33.4% [middle of 12 runs]								
< 7.00		Cn1ncnc1[C@H]1c2n[nH]c(=O)c3cc(F)cc(c23)N[C@@H]1c1ccc(F)cc1	104% and 100%	124% and 103%	104% and 98.2%	75.3% and 72.6%					94.9% and 97.8%	80.7% and 87.4%						
< 5.00		O=C(c1cc(Cc2n[nH]c(=O)c3ccccc23)ccc1F)N1CCN(C(=O)C2CC2)CC1			81.9% and 98.5%	91.4% and 88.5%	85.5% and 102%	93% and 118%	96.8% and 107%	83.2% and 100%								

From PubChem BioAssay AID2060606 (Molecular Pharmacology Branch, DTP, NCI, 2025)
